Active and inactive are the calls of the source. The rule behind the calls is not given here.
Legend:
[1] = Binding affinity to d(CTG) T-T DNA sequence (unknown origin) assessed as mole fraction of compound required to show 2:1 stoichiometry for compound-DNA complex at 50 uM by Job's plot analysis
[2] = Binding affinity to d(CTG) T-T 2 DNA sequence (unknown origin) assessed as equilibrium dissociation constant by isothermal titration method
[3] = Binding affinity to d(CTG) duplex DNA sequence (unknown origin) assessed as equilibrium dissociation constant by isothermal titration method
[4] = Binding affinity to d(CTG) T-T DNA sequence (unknown origin) assessed as equilibrium dissociation constant by isothermal titration method; conditions: read-out: Kd(app)
[5] = Binding affinity to d(CTG) A-A DNA sequence (unknown origin) assessed as equilibrium dissociation constant by isothermal titration method
[6] = Binding affinity to d(CTG) C-C DNA sequence (unknown origin) assessed as equilibrium dissociation constant by isothermal titration method; conditions: for Kd: read-out: Kd(app)
[7] = Binding affinity to d(CTG) U-U DNA sequence (unknown origin) assessed as equilibrium dissociation constant by isothermal titration method
[8] = Binding affinity to d(CTG) T-T 3 DNA sequence (unknown origin) assessed as equilibrium dissociation constant by isothermal titration method
HeLa [9] = assay: Cytotoxicity against human HeLa cells assessed as reduction in cell viability at 25 uM after 72 hrs by SRB assay relative to control; assay type: cell-based
[10] = Inhibition of d(CTG.CAG)74 DNA sequence (unknown origin) transcription at 25 uM pre-incubated for 3 hrs followed by addition of T7 polymerase and measured after 1.5 hrs by PAGE analysis
DNA [11] = assay: Inhibition of random DNA sequence (unknown origin) transcription at 100 uM pre-incubated for 3 hrs followed by addition of T7 polymerase and measured after 1.5 hrs by PAGE analysis; assay type: nucleic-acid assay
[12] = Binding affinity to d(CTG) T-T DNA sequence (unknown origin) assessed as mole fraction of compound required to show 1:1 stoichiometry for compound-DNA complex at 50 uM by Job's plot analysis
[13] = Binding affinity to d(CTG) T-T DNA sequence (unknown origin) assessed as mole fraction of compound required to show 1.3:1 stoichiometry for compound-DNA complex at 50 uM by Job's plot analysis
[14] = Displacement of ethidium from d(CTG)2 DNA sequence (unknown origin) and measured by fluorescence method relative to NC
[15] = Potency index, ratio of transcription inhibition of NC to transcription inhibition of compounds for d(CTG.CAG)74 DNA sequence by PAGE analysis
[16] = Selectivity ratio of cytotoxicity of compound to cytotoxicity of NC for human HeLa cells; assay type: cell-based
[17] = Selectivity ratio of transcription inhibition of random DNA sequence (unknown origin) to transcription inhibition of d(CTG.CAG)74 DNA sequence (unknown origin) by PAGE analysis
HeLa [18] = assay: Cytotoxicity against human HeLa cells assessed as reduction in cell viability at 0.2 to 100 uM after 72 hrs by SRB assay relative to control; assay type: cell-based
HeLa [19] = assay: Cytotoxicity against human HeLa cells assessed as reduction in cell viability after 72 hrs by SRB assay relative to control; assay type: cell-based
DNA [20] = assay: Inhibition of random DNA sequence (unknown origin) transcription at 50 uM pre-incubated for 3 hrs followed by addition of T7 polymerase and measured after 1.5 hrs by PAGE analysis; assay type: nucleic-acid assay
DNA [21] = assay: Inhibition of random DNA sequence (unknown origin) transcription at 25 uM pre-incubated for 3 hrs followed by addition of T7 polymerase and measured after 1.5 hrs by PAGE analysis; assay type: nucleic-acid assay
DNA [22] = assay: Inhibition of random DNA sequence (unknown origin) transcription at 0 to 50 uM pre-incubated for 3 hrs followed by addition of T7 polymerase and measured after 1.5 hrs by PAGE analysis; assay type: nucleic-acid assay
HeLa [23] = assay: Cytotoxicity against human HeLa cells assessed as reduction in cell viability at 6 uM after 72 hrs by SRB assay relative to control; assay type: cell-based
[24] = Inhibition of d(CTG.CAG)74 DNA sequence (unknown origin) transcription at 6 uM pre-incubated for 3 hrs followed by addition of T7 polymerase and measured after 1.5 hrs by PAGE analysis
[25] = Inhibition of MBNL1 binding to r(CUG)12 RNA sequence (unknown origin) assessed as inhibition constant by gel electrophoresis mobility shift assay
[26] = Binding affinity to r(CUG)12 RNA sequence (unknown origin) assessed as equilibrium dissociation constant by isothermal titration method
[27] = Binding affinity to d(CTG)2 DNA sequence (unknown origin) assessed as equilibrium dissociation constant by isothermal titration method
[28] = Binding affinity to r(CUG)4 RNA sequence (unknown origin) assessed as equilibrium dissociation constant by isothermal titration method

Compound | Kd(app) [3] | Kd [4] [µM] | Kd(app) [5] | Kd(app) [7] | inhibition [10] [%] | Selectivity ratio [15] | selectivity ratio [16] | Selectivity ratio [17] | Activity (HeLa [18]) | further results
Nc1nc2nc(n1)NCCCNc1c3ccccc3nc3c(cccc13)C(=O)NCCCN2 | inactive | 18.1 | inactive | inactive | 60 | 4 | 10 | 3 |  | Activity (mole fraction) [1]: 0.68; Kd [2]: 19.8 µM; Kd(app) [6]: inactive; Kd [8]: 15.1 µM; Activity (HeLa [9]): Non-Toxic; inhibition (DNA [11]): 45%; Activity (mole fraction) [12]: 0.5; Activity (mole fraction) [13]: 0.57; Activity [14]: Active
Nc1nc2nc(n1)NCCCCCNc1c3ccccc3nc3c(cccc13)C(=O)NCCCCCN2 |  |  |  |  |  |  | 10 |  | Toxic | 
Nc1nc2nc(n1)NCCCNc1c3ccccc3nc3c(cccc13)C(=O)NCCCCN2 | inactive | 34.9 | inactive | inactive | 60 | 4 | 10 | 3 |  | Kd [6]: 404 µM; IC50 (HeLa [19]): > 100 µM; inhibition (DNA [20]): 45%
Nc1nc2nc(n1)NCCCCNc1c3ccccc3nc3c(cccc13)C(=O)NCCCCN2 |  |  |  |  |  |  | 10 | 3 | Toxic | 
Nc1nc2nc(n1)NCCCNC(=O)c1cccc3c(c4ccccc4nc13)NCCCCN2 | inactive | 19.8 | inactive | inactive | 85 | 4 | 10 |  | Toxic | Kd(app) [6]: inactive; IC50 (HeLa [19]): 20 µM; inhibition (DNA [21]): -0%; inhibition (DNA [22]): < 10%; inhibition (DNA [11]): < 20%; Activity (HeLa [23]): < 10%; inhibition [24]: 45%
N=C(NCCCCNc1nc(N)nc(N)n1)c1ccc(C(=N)NCCCCNc2nc(N)nc(N)n2)cc1 |  |  |  |  |  |  |  |  |  | Ki [25]: 8 µM; Ki [26]: 8 µM
COc1ccc2nc3cc(Cl)ccc3c(NCCCCNc3nc(N)nc(N)n3)c2c1 |  |  |  |  |  |  |  |  |  | Kd [27]: 0.3 to 0.4 µM; Kd [28]: 0.3 to 0.4 µM; Ki [25]: 6 µM
CNC(=O)c1cccc2c(NCCCCNc3nc(N)nc(N)n3)c3ccccc3nc12 |  | 5.8 |  |  | 35 |  |  | 3 |  | Kd ([3]; read-out: Kd(app)): 69 µM; Kd [6]: 159 µM; Kd ([7]; read-out: Kd(app)): 17.9 µM; inhibition (DNA [20]): 45%

Source: ChEMBL document CHEMBL4433229, “Development of novel macrocyclic small molecules that target CTG trinucleotide repeats” (Bioorg Med Chem, 2019)
